Experimental data published in patent US7514438B2, “Melanin concentrating hormone receptor antagonist” (Amgen, Inc., priority 2003, dated 2009).
Like-named read-outs stand apart in the source and are kept apart here.

Tests used:
rat MCH1 receptor [1] = target: T1, rat MCH1 receptor (Rattus norvegicus, UniProt P97639); experiment: rMCH FLIPR calcium mobilization assay (CHOK1-Gqi cells); format: cell-based; design: expressed in transfected cells; host or cells: CHOK1-Gqi; conditions: CHOK1-Gqi cells, rat MCH1 receptor, read-out: Ki in the rMCH FLIPR assay
T1 sequence (P97639 whole entry): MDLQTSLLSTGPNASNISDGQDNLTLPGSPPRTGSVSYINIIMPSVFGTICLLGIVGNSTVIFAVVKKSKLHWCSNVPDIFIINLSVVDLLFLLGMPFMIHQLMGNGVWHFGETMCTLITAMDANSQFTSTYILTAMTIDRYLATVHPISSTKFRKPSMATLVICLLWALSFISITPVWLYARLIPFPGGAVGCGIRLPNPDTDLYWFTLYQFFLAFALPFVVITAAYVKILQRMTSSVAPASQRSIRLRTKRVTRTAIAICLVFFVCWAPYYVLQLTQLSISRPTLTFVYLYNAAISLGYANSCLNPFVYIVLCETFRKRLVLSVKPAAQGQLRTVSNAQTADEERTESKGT
Procedure: Pharmacological analyses were conducted using either a HT-PS100 device (Axiom Biotechnologies, San Diego, Calif.), which provides high-resolution dose-response fluorometric measurements of [Ca^++]i mobilization, or using a FLIPR® device (Molecular Devices, Sunnyvale, Calif.).
Materials: Pharmacological analysis was conducted using a FLIPR® device (Molecular Devices, Sunnyvale, Calif.). CHOK1-Gqi cells were stably transfected with the rat MCH1 receptor and maintained under G418 antibiotic pressure. FLIPR® assay buffer consisted of phenol red-free DMEM+2.5 mM probenecid. […]. Test compounds were prepared as 10 mM stocks in 100% DMSO and diluted to a top end working concentration of 10 μM in 96 well black, flat bottom, collagen-I coated plates (Becton Dickinson, Bedford, Mass.).
Methods: CHOK1-Gqi cells stably expressing MCH1R were maintained in Dulbeco's modified Eagle's medium (GIBCO/Life Technologies, Rockville, Md.) supplemented with 2 mM glutamine and 10% dialyzed fetal bovine serum (HyCLone, Logan, Utah) at 37° C., 5% CO2. Cells were harvested by 10′ treatment with Versene (GIBCO/Life Technologies) followed by trituration, washing twice with cold (4° C.) hybridoma medium (Serum/Protein free, with L-glutamine, sodium bicarbonate, MOPS buffer) (Sigma-Aldrich Corp, St. Louis, Mo.) and replated onto 96 well black, flat bottom, collagen-I coated plates to a density of 10,000 cells/well. The cells were then loaded with the fluorescent calcium indicator Fura-2 (Molecular Probes, Eugene, Oreg.) at 1.6 μM for 60′ at room temperature. The loaded cells were then washed twice with 90 μl/well of wash buffer (1×HBSS, 20 mM HEPES, 2.5 mM probenecid).
Receptor-stimulated intracellular calcium responses were detected using FLIPR® by monitoring increases in the Fura-2 fluorescence response.
Test compounds were screened for MCH1R activity in the FLIPR® for both agonist and antagonist action. Agonist mode challenges were conducted at a maximum gradient concentration of 1 μM. Antagonist activity was tested by 10 min pre-incubation of cells at a compound concentration of defined to be 300× the EC50 of MCH (typically 1 μM), with subsequent introduction of MCH at a concentration 5-fold of EC50 as determined in preliminary experiments. […].
Several fixed concentrations of antagonist compounds were prepared in 10-fold increments, and presented to the cells in a gradient of increasing MCH concentration. Values for compound pA2 were calculated by linear regression of MCH EC50s as a function of antagonist concentration.

rat MCH1 receptor [2] = target: T1, rat MCH1 receptor; experiment: HT-PS100 calcium mobilization functional assay; format: cell-based; design: expressed in transfected cells; conditions: HEK 293 cells stably transfected with rat MCH1 receptor; 100 nM or less list; read-out: Ki in the HT-PS100 assay
[3] = target: T2, human MCH 1 receptor (hMCH1R) (Homo sapiens, UniProt Q99705); experiment: 125I-MCH ligand binding assay, hMCH; conditions: HEK 293 membranes, 0.2 nM 125I native-MCH, read-out: IC50 in the hMCH binding assay
T2 construct: expressed in transfected cells; host or cells: HEK 293 (membranes)
T2 sequence (Q99705 whole entry): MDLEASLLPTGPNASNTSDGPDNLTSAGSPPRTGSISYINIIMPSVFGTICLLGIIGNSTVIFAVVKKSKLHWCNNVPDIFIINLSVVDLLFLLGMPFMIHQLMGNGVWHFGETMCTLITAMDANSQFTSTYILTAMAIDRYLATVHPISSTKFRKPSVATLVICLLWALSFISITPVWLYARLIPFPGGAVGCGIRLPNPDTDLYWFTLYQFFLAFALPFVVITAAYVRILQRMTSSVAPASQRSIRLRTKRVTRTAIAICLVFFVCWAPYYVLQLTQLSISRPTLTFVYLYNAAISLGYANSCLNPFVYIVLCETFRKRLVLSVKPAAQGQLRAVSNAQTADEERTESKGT
Summary of the method: (§1)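 HEK293 membranes expressing rat or human MCH1R (100 µg tissue) were incubated for 90 min at 30 °C with 0.2 nM 125I-native-MCH and test compound in HEPES/MgCl2/BSA buffer with protease inhibitors, pH 7.4. Non-specific binding used 1 µM cold MCH. Filter-bound radioactivity gave IC50 by nonlinear regression.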

[4] = target: T3, rat MCH 1 receptor (rMCH1R) (Rattus norvegicus, UniProt P97639); experiment: 125I-MCH ligand binding assay, rMCH; conditions: HEK 293 membranes, 0.2 nM 125I native-MCH, read-out: IC50 in the rMCH binding assay
T3 construct: expressed in transfected cells; host or cells: HEK 293 (membranes)
T3 sequence (P97639 whole entry): as the sequence (P97639 whole entry) above
Summary of the method: as §1

human MCH receptor = target: T4, human MCH receptor (Homo sapiens, UniProt Q99705); experiment: hMCH FLIPR calcium mobilization assay; format: cell-based; conditions: read-out: Ki in the hMCH FLIPR assay
T4 construct: expressed in transfected cells
T4 sequence (Q99705 whole entry): as the sequence (Q99705 whole entry) above

Ki (rat MCH1 receptor [1]; 100 μM or less list) [µM]	Ki (rat MCH1 receptor [2]) [µM]	IC50 ([3]; 100 nM or less list) [µM]	IC50 ([3]; 100 μM or less list) [µM]	IC50 ([4]; 100 μM or less list) [µM]	Ki (human MCH receptor; 100 nM or less list) [µM]	Ki (human MCH receptor; 100 μM or less list) [µM]	Ki (rat MCH1 receptor [1]; 100 nM or less list) [µM]	IC50 ([4]; 100 nM or less list) [µM]	SMILES
≤ 100	≤ 0.1	≤ 0.1	≤ 100	≤ 100	≤ 0.1	≤ 100	–	–	Cc1ccc([C@@H](c2nnnn2-c2c(C)cccc2C)N2CCN(C/C=C/c3ccccc3)CC2)cc1 (racemic) [Compound 55, 1-{[1-(2,6-dimethyiphenyl)-1H-tetrazol-5-yl]-p-tolylmethyl]-4-(3-phenylallyl)piperazine]
≤ 100	≤ 0.1	–	≤ 100	≤ 100	–	≤ 100	–	–	Cc1cccc(C)c1-n1nnnc1[C@H](c1ccc(Cl)cc1)N1CCN(C/C=C/c2ccccc2)CC1 (racemic) [Compound 57, 1-{(4-chlorophenyl)-[1-(2,6-dimethyiphenyl)-1H-tetrazol-5-yl]methyl}-4-(3-phenylallyl)piperazine]
≤ 100	≤ 0.1	≤ 0.1	≤ 100	≤ 100	≤ 0.1	≤ 100	≤ 0.1	≤ 0.1	Cc1cccc(C)c1-n1nnnc1[C@H](c1cccc(C(F)(F)F)c1)N1CCN(C/C=C/c2ccccc2)CC1 (racemic) [Compound 56, 1-[[1-(2,6-dimethyiphenyl)-1H-tetrazol-5-yl]-(3-trifluoromethyiphenyl)methyl]-4-(3-phenylallyl)piperazine]
≤ 100	≤ 0.1	≤ 0.1	≤ 100	≤ 100	–	≤ 100	–	–	Cc1cccc(C)c1-n1nnnc1[C@H](c1ccc2ccccc2c1)N1CCN(C/C=C/c2ccccc2)CC1 (racemic) [Compound 62, 1-{[1-(2,6-dimethylphenyl)-1H-tetrazol-5-yl]naphthalen-2-ylmethyl}-4-(3-phenylallyl)piperazine]
≤ 100	–	–	≤ 100	≤ 100	–	≤ 100	–	–	COc1ccc(/C=C/CN2CCN([C@@H](c3cccc(C(F)(F)F)c3)c3nnnn3-c3c(C)cccc3C)CC2)cc1 (racemic) [Compound 147, 1-[[1-(2,6-dimethylphenyl)-1H-tetrazol-5-yl]-(3-trifluoromethylphenyl)methyl]-4-[3-(4-methoxyphenyl)allyl]piperazine]
≤ 100	–	–	≤ 100	≤ 100	–	≤ 100	–	–	Cc1cccc(C)c1-n1nnnc1[C@H](c1ccc(-n2ccnc2)cc1)N1CCN(C/C=C/c2ccccc2)CC1 (stereo in doubt) [Compound 135, 1-[[1-(2,6-dimethylphenyl)-1H-tetrazol-5-yl]-(4-imidazol-1-ylphenyl)methyl]-4-(3-phenylallyl)piperazine]
≤ 100	–	≤ 0.1	≤ 100	≤ 100	–	≤ 100	–	≤ 0.1	Cc1cccc(C)c1-n1nnnc1[C@@H](c1ccc(-n2ccnc2)cc1)N1CCN(C/C=C/c2ccccc2)CC1 (stereo in doubt) [Compound 134, 1-[[1-(2,6-dimethylphenyl)-1H-tetrazol-5-yl]-(4-imidazol-1-ylphenyl)methyl]-4-(3-phenylallyl)piperazine]
≤ 100	–	–	≤ 100	≤ 100	–	≤ 100	–	–	Cc1cccc(C)c1-n1nnnc1[C@H](c1cccc(C(F)(F)F)c1)N1CCN(C/C=C/c2ccccc2O)CC1 (racemic) [Compound 151, 2-(3-{4-[[1-(2,6-dimethylphenyl)-1H-tetrazol-5-yl]-(3-trifluoromethylphenyl)methyl]piperazin-1-yl}propenyl)phenol]
≤ 100	–	–	≤ 100	≤ 100	–	≤ 100	–	–	Cc1cccc(C)c1-n1nnnc1[C@H](c1cccc(C(F)(F)F)c1)N1CCN(Cc2cc3ccccc3n2C)CC1 (racemic) [Compound 148, 2-{4-[[1-(2,6-dimethylphenyl)-1H-tetrazol-5-yl]-(3-trifluoromethylphenyl)methyl]piperazin-1-ylmethyl}-1-methyl-1H-indole]

The next lines start with the compound.

SMILES	Ki (rat MCH1 receptor [1]; 100 μM or less list) [µM]	Ki (rat MCH1 receptor [2]) [µM]	IC50 ([3]; 100 nM or less list) [µM]	IC50 ([3]; 100 μM or less list) [µM]	IC50 ([4]; 100 μM or less list) [µM]	Ki (human MCH receptor; 100 nM or less list) [µM]	Ki (human MCH receptor; 100 μM or less list) [µM]	Ki (rat MCH1 receptor [1]; 100 nM or less list) [µM]	IC50 ([4]; 100 nM or less list) [µM]
Cc1cccc(C)c1-n1nnnc1[C@H](c1ccc2c(c1)OCO2)N1CCN(C/C=C/c2ccccc2)CC1 (racemic) [Compound 83, 1-{benzo[1,3]dioxol-5-yl-[1-(2,6-dimethylphenyl)-1H-tetrazol-5-yl]methyl}-4-(3-phenylallyl)piperazine]	≤ 100	≤ 0.1	–	≤ 100	≤ 100	–	≤ 100	–	–
Cc1cccc(C)c1-n1nnnc1[C@H](c1cccs1)N1CCN(C/C=C/c2ccccc2)CC1 (racemic) [Compound 53, 1-{[1-(2,6-dimethyiphenyl)-1H-tetrazol-5-yl]thiophen-2-ylmethyl}-4-(3-phenylallyl)piperazine]	≤ 100	≤ 0.1	–	≤ 100	≤ 100	≤ 0.1	≤ 100	–	–
Cc1cccc(C)c1-n1nnnc1[C@H](c1ccc(OCc2ccccc2)cc1)N1CCN(C/C=C/c2ccccc2)CC1 (racemic) [Compound 70, 1-{(4-benzyloxyphenyl)-[1-(2,6-dimethylphenyl)-1H-tetrazol-5-yl]methyl}-4-(3-phenylallyl)piperazine]	≤ 100	≤ 0.1	≤ 0.1	≤ 100	≤ 100	≤ 0.1	≤ 100	–	≤ 0.1
Cc1cccc(C)c1-n1nnnc1[C@H](c1ccc(Oc2ccccc2)cc1)N1CCN(C/C=C/c2ccccc2)CC1 (racemic) [Compound 76, 1-[[1-(2,6-dimethylphenyl)-1H-tetrazol-5-yl]-(4-phenoxyphenyl)methyl]-4-(3-phenylallyl)piperazine]	≤ 100	≤ 0.1	≤ 0.1	≤ 100	≤ 100	–	–	–	–
Cc1cccc(C)c1-n1nnnc1[C@H](c1ccc(-c2ccccc2)cc1)N1CCN(C/C=C/c2ccccc2)CC1 (racemic) [Compound 64, 1-{biphenyl-4-yl-[1-(2,6-dimethylphenyl)-1H-tetrazol-5-yl]methyl}-4-(3-phenylallyl)piperazine]	≤ 100	≤ 0.1	≤ 0.1	≤ 100	≤ 100	–	–	–	–
Cc1cccc(C)c1-n1nnnc1[C@H](c1cccc(C(F)(F)F)c1)N1CCN(Cc2c[nH]c3ccccc23)CC1 (racemic) [Compound 150, 3-{4-[[1-(2,6-dimethylphenyl)-1H-tetrazol-5-yl]-(3-trifluoromethylphenyl)methyl]piperazin-1-ylmethyl}-1H-indole]	≤ 100	–	–	≤ 100	≤ 100	–	≤ 100	–	–
Cc1cccc(C)c1-n1nnnc1[C@H](c1cccc(-c2ccccc2)c1)N1CCN(C/C=C/c2ccccc2)CC1 (racemic) [Compound 143, 1-{biphenyl-3-yl-[1-(2,6-dimethylphenyl)-1H-tetrazol-5-yl]methyl}-4-(3-phenylallyl)piperazine]	≤ 100	–	–	≤ 100	≤ 100	–	≤ 100	–	–
